Test results reported in ChEMBL document CHEMBL5725713, “5-aminopyrazole-4-carboxamide inhibitors of CDPK1 from T. gondii and C. parvum” (2016).

Biological target: T1, Calmodulin-domain protein kinase 1 (Toxoplasma gondii, UniProt Q9BJF5)
T1 sequence (Q9BJF5 whole entry): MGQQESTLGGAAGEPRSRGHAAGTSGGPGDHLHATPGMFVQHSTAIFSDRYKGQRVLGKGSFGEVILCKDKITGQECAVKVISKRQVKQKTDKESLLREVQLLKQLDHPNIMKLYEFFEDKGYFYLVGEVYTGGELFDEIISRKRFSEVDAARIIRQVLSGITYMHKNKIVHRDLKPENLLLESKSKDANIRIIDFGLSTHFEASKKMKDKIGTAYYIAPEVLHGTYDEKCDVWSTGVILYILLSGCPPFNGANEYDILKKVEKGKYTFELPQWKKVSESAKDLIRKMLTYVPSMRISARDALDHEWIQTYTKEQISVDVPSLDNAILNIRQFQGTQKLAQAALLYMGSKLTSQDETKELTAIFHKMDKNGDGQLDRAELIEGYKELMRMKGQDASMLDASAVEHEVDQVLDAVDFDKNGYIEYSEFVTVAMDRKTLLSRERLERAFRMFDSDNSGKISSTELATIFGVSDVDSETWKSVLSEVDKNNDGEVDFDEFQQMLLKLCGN
Assay: Luminescent Kinase Assay: Inhibition of TgCDPK1 and CpCDPK1 was determined using a luminescent kinase assay which measures ATP depletion in the presence of the Syntide 2 peptide substrate (KinaseGlo). For description of the methods and assays, see WO 2011/094628, incorporated by reference herein.

CC(C)(C)n1cc(C(N)=O)c(-c2ccc3c(N)n[nH]c3c2)n1
IC50: 40 nM
